Results on two compounds are retold here after patent US20170121683A1, “ARYL HYDROCARBON RECEPTOR DISRUPTION AND ENHANCEMENT” (priority 2015, published 2017).

Molecules are shown by their SMILES.

Assay [1] relates to hESC-derived non-adherent hematopoietic progenitor cells. Nature of the assay: Cell cycle analysis (EdU/propidium iodide flow cytometry). In kind it is cell-based, human. To be noted: Day 6+5, SR-1 or TCDD, n=3. How it is done:
FIG. 10A. Non-adherent hematopoietic progenitor cells derived from hESCs were cultured in the presence of DMSO, SR-1, and TCDD until Day 6+5. Cell cycle phase was assessed using flow cytometry to determine the total percentage of G0/G1)(EdU^−PI^lo, S-phase (EdU^+PI^+), or G2/M (EdU^−PI^hi). Representative flow cytometry plots are shown. FIG. 10B. Quantification of cell cycle analysis, n=3, *p<0.05, **p<0.01, ***p<0.001 as assessed by two-way ANOVA+Tukey-Kramer multiple comparisons post-hoc test.
Spin EBs were differentiated into hemato-endothelial cells with non-adherent cells harvested on Day 6+5. Cells were cultured in a 24-well plate and harvested after 1 week for flow cytometry analysis. Cells were co-stained with anti-human CD34-PECy7 to monitor proliferation of HSPCs. For cell cycle analysis, Day 6+5 non-adherent cells derived from EBs were harvest and monitored for S-phase using the Click-iT EdU Alex Fluor 647 flow cytometry assay kit per manufacturer instructions. Prior to flow cytometry, cells were counterstained with 50 μg/mL propidium iodide supplemented with 100 μg/mL RNAse A (New England BioLabs, Ipswich, Mass.).
For orientation: In flow cytometry, cells or beads pass a laser one at a time.

Assay [2] concerns hESC-derived hematopoietic cells. Put plainly: qRT-PCR of lymphoid-specific gene expression. In kind it is cell-based, human. Details: expression of TBX21/TBET, fold vs DMSO-treated control / expression of EOMES, fold vs DMSO-treated control: concentration or dose not given beside the values. Conditions: Day 11+28. How it is done:
FIG. 13A. Schema of hESC differentiation into lymphoid cells as spin-embryoid bodies (spin-EBs). hESCs are made into spin-EBs at Day 0 and cultured in Stage 1 conditions with defined cytokines to promote mesoderm development for 11 days. At Day 11, spin-EBs are transferred onto OP9-DL1 in the presence of NK cell differentiation media (NKDM) to promote lymphoid differentiation. Cells are treated beginning at Day 11+0 with either 1 μM SR-1, 10 nM TCDD, or DMSO vehicle control with media exchanges and/or harvesting performed every week for up to 4 weeks. FIG. 13B. At Day 11, differentiated spin-EBs (photo) are phenotyped for CD34^+CD45^+ expression and transferred to OP9-DL1 stroma in NKDM. Non-adherent hematopoietic cells cultured either in the presence of DMSO, SR-1, or TCDD were assessed for developing NK cell immunophenotype based on CD56^+CD45^+ expression at Days 11+21, and 11+28; representative flow cytometry plots from one differentiation are shown. FIG. 13C. Quantification of fold-change in total percentage of CD56^+CD45^+ cells at both Day 11+21 and Day 11+28 when treated with DMSO, SR-1, or TCDD. SR-1 and TCDD treatments for each differentiation are normalized to DMSO controls. n=3 independent differentiation experiments, error bars represent SEM, *p<0.05 as assessed with two-way ANOVA+Tukey-Kramer multiple comparisons post-hoc test. FIG. 13D. Non-adherent hematopoietic progenitor cells derived from hESCs differentiated in the presence of SR-1, TCDD, or DMSO controls were harvested at Day 11+28 and probed for gene expression by quantitative real-time PCR (qRT-PCR). For each gene, Ct values were normalized to GAPDH at each time point and data is presented as relative fold-change to DMSO treated controls. n=3, error bars represent SEM, *p<0.05, #p<0.01 using student's t-test. FIG. 13E. Non-adherent hematopoietic progenitor cells derived from hESCs differentiated in the presence of SR-1, TCDD, or DMSO controls were harvested at Day 11+28 and assessed for CD107a expression following 4 hours of co-culture with K562 target cells at 2:1 effector:target ratio. SSC: side scatter. Representative flow cytometry plots are shown from one experiment. FIG. 13F. Quantification of percentage of CD107a^+ cells when treated with DMSO, SR-1, or TCDD at Day 11+28, n=2-3 replicates.
Spin-EBs were generated as described above (see also Knorr et al. Stem Cells Dev. 2013; 22(13):1861-9; Ni et al. Embryonic Stem Cell Immunobiol. Methods Protoc. Methods Mol. Biol. 2013; 1029:33-41; Hermanson et al. Stem Cells. 2016; 34(1):93-101). Following 11 days of mesoderm conditioning (Day 11), spin-EBs were collected and analyzed by flow cytometry to assess hematopoietic progenitor cell potential (see flow cytometry methods for antibodies used) (FIG. 4A). Spin-EBs yielding >30% CD34^+CD45^+ cells were transferred onto 24-well plates coated with irradiated OP9-DL1 cells (as described in Martin et al. Blood. 2008; 112(7):2730-7; La Motte-Mohs et al. Blood. 2005; 105(4):1431-9) (now defined as Day 11+0). EBs and OP9-DL1 were co-cultured in NK differentiation media (NKDM) supplemented initially with SCF, IL-15, IL-7, Flt3-L (all R&D Systems), and IL-3 (PeproTech) for one week; DMSO, SR-1, or TCDD were also added at Day 11+0. Every week, a one-half media change with NKDM supplemented with SCF, IL-15, IL-7, Flt3-L, and drugs was performed. hESCs were differentiated for four additional weeks (Day 11+28) and non-adherent cells were harvested for analysis. […]

Take `Clc1cc2c(cc1Cl)Oc1cc(Cl)c(Cl)cc1O2` [TCDD, 2,3,7,8-tetrachlorodibenzo-p-dioxin]: in assay [1], the “percentage of cells in G0/G1 phase (EdU−PIlow)” value is reported as 25.8±0.34% and the “percentage of cells in S-phase (EdU+PI+)” value is on record as 38.2%±1.03. In assay [2], the “expression of EOMES, fold vs DMSO-treated control” value is recorded as 1.84±0.11 fold and the “expression of TBX21/TBET, fold vs DMSO-treated control” value was 1.56±0.07 fold.

As to `CC(C)n1cnc2c(NCCc3ccc(O)cc3)nc(-c3csc4ccccc34)nc21` [SR-1, StemReginin-1], in assay [1], the “percentage of cells in G0/G1 phase (EdU−PIlow)” value is reported as 43.7%±1.82 and the “percentage of cells in S-phase (EdU+PI+)” value is listed as 38.2%±1.00. In addition, in assay [2], the “expression of EOMES, fold vs DMSO-treated control” value is reported as 5.12±0.52 fold; the “expression of ID2, fold vs DMSO-treated control” value amounted to 2.49±0.003 fold; the “expression of TBX21/TBET, fold vs DMSO-treated control” value was 3.44±0.55 fold.
